Measurements taken from patent US12728126B2, “Compounds for inhibiting LY6K and methods of using same” (The Henry M. Jackson Foundation for the Advancement of …, priority 2020, dated 2026).

Experiments:
[1] = tested on: Hs-578-T cells, BT-549 cells, and OVCAR-8 cells; assay: In vitro cell growth inhibition in other cancer cell types (FIG. 2); assay type: cell-based
Protocol: (§1) For cell death assay, cells were plated in a black walled 96-well plate and treated with the indicated concentration of drugs for 24 h. Cell-Titer-Blue reagent was added, and the Cytation 5 microplate reader (BioTek, Winooski, VT, USA) was used to measure fluorescence intensity (excitation 560(10) nm, emission 590(20) nm) according to manufacturer's instructions.
Cell culture and viability assay are as described herein. […] The inhibitory effect of a crystalline form of Compound I on cell growth in vitro is further illustrated in other cancer cells types, including Hs-578-T cells, BT-549 cells, and OVCAR-8 cells (FIG. 2).

[2] = tested on: MDA-MB-231 cells; assay: Cell-Titer-Blue assay, control vs LY6K knockdown MDA-MB-231 cells; assay type: cell-based
Protocol: as §1
To confirm the effect of NSC243928 in LY6K-expressing cells, it was observed the parental control and sh2 LY6K knockdown in MDA-MB-231 cells, a triple negative breast cancer cell line. These cells were generated as previously described. To test the effect of NSC243928 on cell growth, the cells were seeded into 96-well plates and treated with 2 μM of the compound for 24 h. A CTB assay was then performed according to manufacturer's instructions to determine the cell growth.
(§2) Cells were serum starved overnight and then treated with TGF 13 (10 ng/mL) or IFN γ (100 ng/mL) in the presence of 2 μM NSC243928 or NSC11150 for 30 minutes followed by protein analysis using western blot. […] NSC243928 inhibited the TGFβ1 induced phosphorylation of Smad2/3; NSC11150 had no effect on TGFβ1/Smad2/3 signaling. NSC11150 inhibited IFNγ induced phosphorylation of Stat1; NSC243928 had no effect on IFNγ/Stat1 signaling.

[3] = tested on: PD-L1; assay: PD-L1 measured in live cells after IFN γ treatment; assay type: cell-based; conditions: serum starved, 100 ng/ml IFN γ, 2 μM drug
Protocol: Cells were serum starved and treated with 100 ng/ml IFN γ with 2 μM drugs. PD-L1 was measured in live cells (using a zombie live-dead stain). The graph was plotted from three experiments. A 7.9-fold decrease in the number of cells with high PD-L1 expression was observed.

[4] = tested on: 4T1 mouse mammary tumor cells; assay: 4T1 syngeneic mammary tumor model, tumor growth in vivo; parameters: species or system Balb/c mice; conditions: 4T1 model
Protocol: A syngeneic mammary tumor model is used to show the effect of Ly6K small molecule inhibitors on tumor growth in vivo. 4T1 mouse model is an orthotopic allograft model (also called the spontaneous tumor metastasis model). In the 4T1 mouse model, 4T1 mouse mammary tumor cells were injected into the second mammary gland of syngenetic Balb/c mice, and the spontaneous metastasis to the lung were analyzed with a colonogenic assay. 4T1 mice bearing 50-70 mm^3 tumors were treated with NSC243928 or NSC11150 every second day at a dosage of 5 mg/kg in saline. Each group had 10 mice. Tumor measurements were performed using a Vernier caliper. The tumor volumes were calculated using equation ½*length*(width*width).

[5] = tested on: TGFβ1/Smad2/3 signaling; assay: Western blot of TGFβ1 induced phosphorylation of Smad2/3; assay type: cell-based; conditions: serum starved, TGFβ1 (10 ng/mL), 2 μM, 30 minutes
Protocol: as §2

[6] = tested on: IFNγ/Stat1 signaling; assay: Western blot of IFNγ induced phosphorylation of Stat1; assay type: cell-based; conditions: serum starved, IFN γ (100 ng/mL), 2 μM, 30 minutes
Protocol: as §2

[7] = tested on: PD-L1; assay: PD-L1 protein expression in control cells; assay type: cell-based; conditions: 2 μM

Structure (SMILES) | inhibitory effect on cell growth at different concentrations (comparison) ([1]; crystalline form compared, different concentrations) | IC50 ([1]; range over the cell types of FIG. 2) | cell death / cell growth in control MDA-MB-231 cells ([2]; 2 μM, 24 h, control cells) | cell death in Ly6K knockdown cells ([2]; 100 μM, Ly6K knockdown cells (data not shown)) | cell death in control cells ([2]; 100 μM, control cells (data not shown)) | inhibitory effect on cells with high expression of PD-L1 [3] | decrease in the number of cells with high PD-L1 expression ([3]; live cells, three experiments) | day following treatment at which inhibition on tumor growth is statistically significant ([4]; 5 mg/kg every second day, P<0.005) | inhibitory effect on tumor growth in vivo ([4]; 5 mg/kg in saline every second day) | TGFβ1 induced phosphorylation of Smad2/3 [5] | IFNγ induced phosphorylation of Stat1 [6] | PD-L1 protein expression [7]
CCS(=O)(=O)Nc1ccc(Nc2c3ccccc3nc3ccccc23)c(OC)c1 [crystalline form of Compound I, N-(4-(acridin-9-ylamino)-3-methoxyphenyl)ethanesulfonamide] | same or better inhibitory effect | 4.17 to 7.65 µM | – | – | – | – | – | – | – | – | – | –
Oc1ccc(Cc2ccc(Cl)cc2)c(O)c1 [Compound II, 4-(4-chlorobenzyl)benzene-1,3-diol] | – | – | did not show significant effect on cell death | induced cell death | induced cell death | showed inhibitory effect | 7.9 fold | 11 days | significant inhibitory effects | had no effect | inhibited | inhibition of PD-L1 expression
